In ChEMBL document CHEMBL5532636 (Eur J Med Chem, 2023):

Tested on: SARS-CoV-2
Assay: Antiviral activity against SARS-CoV-2 Omicron BA.5 variant infected in African green monkey Vero E6 cells assessed as inhibition in viral replication at 25 ug/ml preincubated with cell culture for 1 hr and further infected with virus for 1 hr followed by removal of virus particles and subsequent replacement of medium containing compound measured for 72 hrs post-infection by RT-PCR analysis relative to control
Format: functional
Details: Severe acute respiratory syndrome coronavirus 2, Omicron BA.5, Vero C1008, time 73 hrs

## O=c1cc(-c2ccccc2)oc2cc(O)c(O)c(O)c12 [BAICALEIN]
  inhibition at 25 µg/mL: > 50%
